In ChEMBL document CHEMBL1857833, “Screening and optimization of specific chemical series against human African Trypanosomiasis (HAT)”:
≈ marks a conversion by molar mass, not a printed value. Where “and” joins values, the source holds several entries; their conditions need not be identical. Identical values can stand only once.

Tests used:
[1] = DNDI: Cytotoxicity against L929 mouse fibroblasts, 72 hour.; format: toxicity, cell-based; details: mouse, L929 mouse fibroblasts
Trypanosoma brucei [2] = experiment: DNDI: Inhibition of Human African Trypanosomiasis, Cross 22, in vitro; format: functional, organism-based
Trypanosoma brucei [3] = experiment: DNDI: Inhibition of Human African Trypanosomiasis, SBRI 427, in vitro; format: functional, organism-based
[4] = DNDI: Cytotoxicity against L929 mouse fibroblasts, CYTO-SP, 24 hour; format: toxicity, cell-based; details: mouse, L929 mouse fibroblasts
[5] = test system: Trypanosoma brucei rhodesiense; experiment: DNDI: Inhibition of Human African Trypanosomiasis (HAT), STIB 900, in vitro; format: functional, organism-based
Plasmodium falciparum = experiment: DNDI: Inhibition of the malaria parasite Plasmodium falciparum, in vitro; format: functional, organism-based; details: K1
Trypanosoma cruzi = experiment: DNDI: Inhibition of Chagas Disease parasite Trypanosoma cruzi (Tulahuen LacZ, Clone C4), in vitro.; format: functional, organism-based
[6] = DNDI: Cytotoxicity against L-6 rat myoblasts from skeletal muscle cells; format: toxicity, cell-based, L6; details: L-6 rat skeletal muscle myoblasts
Leishmania donovani = experiment: DNDI: Inhibition of formation of Leishmania donovani (strain MHOM/ET/67/L82) axenic amastigotes, in vitro.; format: functional, organism-based
in vitro = details: mouse, liver microsomes, t (1 / 2)
Description: DNDI: half life in mouse liver microsomes at a concentration of 1uM

[7] = mouse, microsomes, 1 µM
Description: DNDI: in vitro intrinsic clearance in mouse liver microsomes at a concentration of 1uM

[8] = DNDI: Solubility in phosphate buffered saline at pH7.4 measured by nephelometry at room temperature (NEPH-RT); format: physicochemical; details: pH 7.4
[9] = DNDI: Lipophilicity measured in Chromatographic hydrophobicity index (CHI) assay, pH 7.4; format: physicochemical; details: buffer
Trypanosoma brucei [10] = experiment: DNDI: Mean survival time in days (MSD) of mice after intraperitoneal injection of Human African Trypanosomiasis (HAT), EATRO 110, in vivo at 20 mg/kg/day for 4 days.; format: functional, Mus musculus
[11] = Trypanosoma brucei, SBRI 427, read-out: IC50

Row | Structure (SMILES) | IC50 (Trypanosoma brucei [2]) [µg/mL] | IC50 (Trypanosoma brucei [3]) | IC50 (Trypanosoma brucei [3]; [11]) [µg/mL] | IC50 [5] [µg/mL] | IC50 (Plasmodium falciparum) [µg/mL] | IC50 (Trypanosoma cruzi) [µg/mL] | IC50 (Leishmania donovani) [µg/mL] | half-life at 1 µM (in vitro) [min] | CLint in vitro [7] [µL/min/mg] | solubility kinetic [8] [µM] | chromatographic logD [9] | IC50 at 72 h [1] [µg/mL] | IC50 at 24 h [4] [µg/mL] | IC50 [6] [µg/mL] | MSD (Trypanosoma brucei [10]) [days]
1 | CCCCCC(C)NCc1coc(-c2ccc(Br)cc2)n1 (stereo unspecified) | 2.01 (≈ 5.72 µM) | 1.34 µg/mL and 1.55 µg/mL | 0.9 (≈ 2.56 µM) | 0.532 (≈ 1.51 µM) | 2.41 (≈ 6.86 µM) | 8.2 (≈ 23.3 µM) | 20.4 (≈ 58 µM) |  |  |  |  | 4.47 (≈ 12.7 µM) | > 50 | 12.7 (≈ 36.1 µM) | 
2 | CCOc1ccc(-c2nc(CNC3CCCCCC3)co2)cc1 | 1.12 (≈ 3.56 µM) | 1.36 µg/mL and 0.96 µg/mL | 1.46 (≈ 4.64 µM) |  |  |  |  | 39 | 22 |  |  | < 3.13 | 25.1 (≈ 80 µM) |  | 
3 | Brc1ccc(-c2nc(CNC3[C@H]4C[C@@H]5C[C@@H](C[C@H]3C5)C4)co2)cc1 (stereo partly specified) | 2.26 (≈ 5.83 µM) | 1.2 µg/mL and 3.02 µg/mL and 2.81 µg/mL |  |  |  |  |  |  |  |  |  | 8.08 (≈ 20.9 µM) | > 50 |  | 
4 | Clc1ccc(-c2nc(CNC3CCCCCC3)co2)cc1 | 1.45 (≈ 4.76 µM) | 1.61 µg/mL and 1.55 µg/mL | 1.27 (≈ 4.17 µM) |  |  |  |  |  |  |  |  | 3.43 (≈ 11.3 µM) | 26.6 (≈ 87.3 µM) |  | 
5 | C[C@H]1C(NCc2coc(-c3ccc(Cl)cc3)n2)C[C@@H]2C[C@H]1C2(C)C (stereo partly specified) | 0.9 (≈ 2.61 µM) | 0.71 µg/mL and 0.8 µg/mL | 1.06 (≈ 3.07 µM) |  |  |  |  |  |  |  |  | < 3.13 | > 50 |  | 
6 | CCCCCOc1ccc(-c2nc(CNC3CC(C)CC(C)(C)C3)co2)cc1 (stereo unspecified) |  |  | 0.16 (≈ 0.416 µM) |  |  |  |  | 107 | 8 | 2 (≈ 0.769 µg/mL) | 6.02 | < 3.13 | > 50 |  | 
7 | CCc1ccc(Oc2ncccc2/C(=N\O)NC2CCCCC2)cc1 |  |  | 0.09 (≈ 0.265 µM) |  |  |  |  |  |  |  |  | > 10 |  |  | 4
8 | CC(C)(C)c1ccc(-c2nc(CNC[C@@H]3CC[C@H]4C[C@@H]3C4(C)C)co2)cc1 | > 5 |  | > 5 |  |  |  |  |  |  |  |  | > 50 | > 50 |  | 

Second part, led by results:

Row | IC50 (Trypanosoma brucei [2]) [µg/mL] | IC50 (Trypanosoma brucei [3]) | IC50 (Trypanosoma brucei [3]; [11]) [µg/mL] | IC50 [5] [µg/mL] | IC50 (Plasmodium falciparum) [µg/mL] | IC50 (Trypanosoma cruzi) [µg/mL] | IC50 (Leishmania donovani) [µg/mL] | half-life at 1 µM (in vitro) [min] | CLint in vitro [7] [µL/min/mg] | solubility kinetic [8] [µM] | chromatographic logD [9] | Structure (SMILES) | IC50 at 72 h [1] [µg/mL] | IC50 at 24 h [4] [µg/mL] | IC50 [6] [µg/mL] | MSD (Trypanosoma brucei [10]) [days]
9 | 0.92 (≈ 2.39 µM) | 0.7 µg/mL and 0.85 µg/mL | 1.18 (≈ 3.07 µM) |  |  |  |  |  |  |  |  | c1ccc(-c2ccc(-c3nc(CNC4[C@H]5C[C@@H]6C[C@@H](C[C@H]4C6)C5)co3)cc2)cc1 (stereo partly specified) | 9.8 (≈ 25.5 µM) | > 50 |  | 
10 |  |  | 1.19 (≈ 4.21 µM) | 8.99 (≈ 31.8 µM) | 2.18 (≈ 7.72 µM) | 7.73 (≈ 27.4 µM) | 13.3 (≈ 47 µM) |  |  |  |  | CCC(CC)N/C(=N\O)c1ccccc1-c1ccccc1 | > 10 | > 50 | 17.2 (≈ 60.9 µM) | 
11 | 0.58 (≈ 1.52 µM) | 0.61 µg/mL and 0.72 µg/mL and 0.29 µg/mL |  |  |  |  |  |  |  |  |  | CCCCOc1ccc(-c2nc(CN[C@@H]3C[C@@H]4C[C@H]([C@H]3C)C4(C)C)co2)cc1 | < 3.13 | 8.05 (≈ 21 µM) |  | 
12 | 0.87 (≈ 2.31 µM) | 0.54 µg/mL and 0.97 µg/mL and 1.17 µg/mL |  |  |  |  |  |  |  |  |  | CC1CC(NCc2coc(-c3ccc(Br)cc3)n2)CC(C)(C)C1 (stereo unspecified) | < 3.13 | > 50 |  | 
13 | 0.83 (≈ 2.28 µM) | 0.87 µg/mL and 0.51 µg/mL and 1.1 µg/mL |  |  |  |  |  | 59 | 14 |  |  | CC(C)(C)c1ccc(-c2nc(CNC3[C@H]4C[C@@H]5C[C@@H](C[C@H]3C5)C4)co2)cc1 (stereo partly specified) | 13 (≈ 35.8 µM) | > 50 |  | 
14 | 1.04 (≈ 3.02 µM) | 0.9 µg/mL and 1.53 µg/mL | 0.8 (≈ 2.32 µM) |  |  |  |  |  |  |  |  | CC1(C)[C@H]2CC[C@@H](CNCc3coc(-c4ccc(Cl)cc4)n3)[C@@H]1C2 | 3.52 (≈ 10.2 µM) | > 50 |  | 
15 |  |  | 2.15 (≈ 6.97 µM) | 18.7 (≈ 60.6 µM) | 2.7 (≈ 8.75 µM) | 3.63 (≈ 11.8 µM) | 4.75 (≈ 15.4 µM) |  |  |  |  | O/N=C(\NCC1CCCCC1)c1ccccc1-c1ccccc1 | 2.72 (≈ 8.82 µM) | 16.1 (≈ 52.1 µM) | 14.8 (≈ 47.9 µM) | 
16 | 0.34 (≈ 0.893 µM) | 0.37 µg/mL and 0.29 µg/mL | 0.36 (≈ 0.946 µM) |  |  |  |  |  |  |  |  | CCCCOc1ccc(-c2nc(CNC3[C@H]4C[C@@H]5C[C@@H](C[C@H]3C5)C4)co2)cc1 (stereo partly specified) | < 3.13 | 15.9 (≈ 41.8 µM) |  | 
17 |  |  |  | 20.9 (≈ 58.1 µM) | 4.4 (≈ 12.2 µM) | 4.72 (≈ 13.1 µM) | 6.18 (≈ 17.2 µM) |  |  |  |  | CC1CCC(N/C(=N\O)c2cccnc2Oc2ccccc2Cl)CC1 (stereo unspecified) | > 10 | > 50 | 50.2 (≈ 139 µM) | 
18 | 1.03 (≈ 2.69 µM) | 1.54 µg/mL and 0.83 µg/mL and 0.57 µg/mL |  |  |  |  |  | 9 | 95 |  |  | CCCCOc1ccc(-c2nc(CNC[C@@H]3CC[C@H]4C[C@@H]3C4(C)C)co2)cc1 | < 3.13 | 16.4 (≈ 42.9 µM) |  | 
19 |  |  | > 5 | 25.9 (≈ 115 µM) | > 5 | > 30 | 13.6 (≈ 60.8 µM) |  |  |  |  | O/N=C(\NC1CCCCC1)c1ccsc1 | > 10 | > 50 | > 83.5 | 
